Where two headings read alike, the source gives them in different places.
Target: SREBP-2 (Homo sapiens (Human), UniProt Q12772)
Experiment: In vitro assay SREBP-2: PathHunter U2OS SREBP-2 Nuclear Translocation Cell Line, U18666A-stimulated
Type: cell-based
[1] = PathHunter U2OS SREBP-2 nuclear translocation cells, U18666A 10 μM, overnight (16 hours)

Structure (SMILES)	IC50 [1] [nM]	IC50 [nM]
CCC1(O)CCN(C(=O)C[C@@H](C)[C@H]2CC[C@H]3[C@@H]4CC=C5C[C@@H](O)CC[C@]5(C)[C@H]4CC[C@]23C)CC1 [Example 592, (R)-1-(4-ethyl-4-hydroxypiperidin-1-yl)-3-((3S,8S,9S,10R,13R,14S,17R)-3-hydroxy-10,13-dimethyl-2,3,4,7,8,9,10,11,12,13,14,15,16,17-tetradecahydro-1H-cyclopenta[a]phenanthren-17-yl)butan-1-one]	< 250	
C[C@H](CCC(=O)Nc1ccc(C(N)=O)cc1)[C@H]1CC[C@H]2[C@@H]3CC=C4C[C@@H](O)CC[C@]4(C)[C@H]3CC[C@]12C [Example 556, 4-((R)-4-((3S,8S,9S,10R,13R,14S,17R)-3-hydroxy-10,13-dimethyl-2,3,4,7,8,9,10,11,12,13,14,15,16,17-tetradecahydro-1H-cyclopenta[a]phenanthren-17-yl)pentanamido)benzamide]	< 250	
C[C@H](Oc1cccnc1CO)[C@H]1CC[C@H]2[C@@H]3CC=C4C[C@@H](O)CC[C@]4(C)[C@H]3CC[C@]12C [Example 270, (3S,8S,9S,10R,13S,14S,17S)-17-((S)-1-((2-(hydroxymethyl)pyridin-3-yl)oxy)ethyl)-10,13-dim ethyl-2,3,4,7,8,9,10,11,12,13,14,15,16,17-tetradecahydro-1H-cyclopenta[a]phenanthren-3-ol]	250 to 1000	
CNC(=O)O[C@@H](C)[C@H]1CC[C@H]2[C@@H]3CC=C4C[C@@H](O)CC[C@]4(C)[C@H]3CC[C@]12C [Example 243, (1S)-1-[(1S,3aS,3bS,7S,9aR,9bS,11aS)-7-hydroxy-9a,11a-dimethyl-1H,2H,3H,3aH,3bH,4H,6H,7H,8H,9H,9aH,9bH,10H,11H,11aH-cyclopenta[a]phenanthren-1-yl]ethyl N-methylcarbamate]		< 250
CNC(=O)c1ncccc1O[C@@H](C)[C@H]1CC[C@H]2[C@@H]3CC=C4C[C@@H](O)CC[C@]4(C)[C@H]3CC[C@]12C [Example 267, 3-((S)-1-((3S,8S,9S,10R,13S,14S,17S)-3-hydroxy-10,13-dimethyl-2,3,4,7,8,9,10,11,12,13,14,15,16,17-tetradecahydro-1H-cyclopenta[a]phenanthren-17-yl)ethoxy)-N-methylpicolinamide]	250 to 1000	
C[C@H](CCC(=O)N1CCN(c2ncccn2)CC1)[C@H]1CC[C@H]2[C@@H]3CC=C4C[C@@H](O)CC[C@]4(C)[C@H]3CC[C@]12C [Example 397, (R)-4-((3S,8S,9S,10R,13R,14S,17R)-3-hydroxy-10,13-dimethyl-2,3,4,7,8,9,10,11,12,13,14,15,16,17-tetradecahydro-1H-cyclopenta[a]phenanthren-17-yl)-1-(4-(pyrimidin-2-yl)piperazin-1-yl)pentan-1-one]	< 250	
CCC1(O)CCN(C(=O)CCC[C@H]2CC[C@H]3[C@@H]4CC=C5C[C@@H](O)CC[C@]5(C)[C@H]4CC[C@]23C)CC1 [Example 370, 1-(4-ethyl-4-hydroxypiperidin-1-yl)-4-((3S,8S,9S,10R,13R,14S,17S)-3-hydroxy-10,13-dimethyl-2,3,4,7,8,9,10,11,12,13,14,15,16,17-tetradecahydro-1H-cyclopenta[a]phenanthren-17-yl)butan-1-one]	250 to 1000	
C[C@H](COc1cccc(CO)n1)[C@H]1CC[C@H]2[C@@H]3CC=C4C[C@@H](O)CC[C@]4(C)[C@H]3CC[C@]12C [Example 444, (3S,8S,9S,10R,13S,14S,17R)-17-((S)-1-((6-(hydroxymethyl)pyridin-2-yl)oxy)propan-2-yl)-10,13-dimethyl-2,3,4,7,8,9,10,11,12,13,14,15,16,17-tetradecahydro-1H-cyclopenta[a]phenanthren-3-ol]	< 250	
CON(C)C(=O)CC[C@@H](C)[C@H]1CC[C@H]2[C@@H]3CC=C4C[C@@H](O)CC[C@]4(C)[C@H]3CC[C@]12C [Example 1, (R)-4-((3S,8S,9S,10R,13R,14S,17R)-3-hydroxy-10,13-dimethyl-2,3,4,7,8,9,10,11,12,13,14,15,16,17-tetradecahydro-1H-cyclopenta[a]phenanthren-17-yl)-N-methoxy-N-methylpentanamide]	< 250	
C[C@H](CCC(=O)N1CCC(O)(C(F)F)CC1)[C@H]1CC[C@H]2[C@@H]3CC=C4C[C@@H](O)CC[C@]4(C)[C@H]3CC[C@]12C [Example 128, (R)-1-(4-(difluoromethyl)-4-hydroxypiperidin-1-yl)-4-((3S,8S,9S,10R,13R,14S,17R)-3-hydroxy-10,13-dimethyl-2,3,4,7,8,9,10,11,12,13,14,15,16,17-tetradecahydro-1H-cyclopenta[a]phenanthren-17-yl)pentan-1-one]	< 250	
C[C@H](CCC(=O)N1CC[C@H](NC(=O)c2cnn(C)c2)C1)[C@H]1CC[C@H]2[C@@H]3CC=C4C[C@@H](O)CC[C@]4(C)[C@H]3CC[C@]12C [Example 526, N-[(3S)-1-[(4R)-4-[(1R,3aS,3bS,7S,9aR,9bS,11aR)-7-hydroxy-9a,11a-dimethyl-1H,2H,3H,3aH,3bH,4H,6H,7H,8H,9H,9aH,9bH,10H,11H,11aH-cyclopenta[a]phenanthren-1-yl]pentanoyl]pyrrolidin-3-yl]-1-methyl-1H-pyrazole-4-carboxamide]	< 250	
CNC(=O)c1cccc(OC[C@@H](C)[C@H]2CC[C@H]3[C@@H]4CC=C5C[C@@H](O)CC[C@]5(C)[C@H]4CC[C@]23C)n1 [Example 256, 6-((S)-2-((3S,8S,9S,10R,13S,14S,17R)-3-hydroxy-10,13-dimethyl-2,3,4,7,8,9,10,11,12,13,14,15,16,17-tetradecahydro-1H-cyclopenta[a]phenanthren-17-yl)propoxy)-N-methylpicolinamide]	250 to 1000	
COC(=O)N1CCN(C(=O)OC[C@@H](C)[C@H]2CC[C@H]3[C@@H]4CC=C5C[C@@H](O)CC[C@]5(C)[C@H]4CC[C@]23C)CC1 [Example 465, 1-(2S)-2-[(1R,3aS,3bS,7S,9aR,9bS,11aS)-7-hydroxy-9a,11a-dimethyl-1H,2H,3H,3aH,3bH,4H,6H,7H,8H,9H,9aH,9bH,10H,11H,11aH-cyclopenta[a]phenanthren-1-yl]propyl 4-methyl piperazine-1,4-dicarboxylate]	< 250	
CNC(=O)c1ccnc(OC[C@@H](C)[C@H]2CC[C@H]3[C@@H]4CC=C5C[C@@H](O)CC[C@]5(C)[C@H]4CC[C@]23C)c1 [Example 450, 2-((S)-2-((3S,8S,9S,10R,13S,14S,17R)-3-hydroxy-10,13-dimethyl-2,3,4,7,8,9,10,11,12,13,14,15,16,17-tetradecahydro-1H-cyclopenta[a]phenanthren-17-yl)propoxy)-N-methylisonicotinamide]	< 250	
CC(C)CC1(O)CCN(C(=O)CC[C@@H](C)[C@H]2CC[C@H]3[C@@H]4CC=C5C[C@@H](O)CC[C@]5(C)[C@H]4CC[C@]23C)CC1 [Example 93, (R)-4-((3S,8S,9S,10R,13R,14S,17R)-3-hydroxy-10,13-dimethyl-2,3,4,7,8,9,10,11,12,13,14,15,16,17-tetradecahydro-1H-cyclopenta[a]phenanthren-17-yl)-1-(4-hydroxy-4-isobutylpiperidin-1-yl) pentan-1-one]	< 250	
